Data as given in DBAASP.
≈ marks a conversion by molar mass, not a printed value.

Tests used:
Assay in all cases: ≥ marks a high value that may be exact or a test limit, other limits are often not marked, values filed in µg/mL are converted to µM
[1] = tested on: Bacillus subtilis ATCC 9372
[2] = tested on: Escherichia coli ATCC 25922
[3] = tested on: Pseudomonas aeruginosa ATCC 27853
[4] = tested on: Salmonella typhimurium ATCC 50013
[5] = tested on: Shigella dysenteriae ATCC 51302
[6] = tested on: Staphylococcus aureus ATCC 25923
[7] = tested on: Streptococcus pneumoniae ATCC 49619
[8] = tested on: Staphylococcus aureus SH1000
[9] = tested on: Acinetobacter baumannii ATCC 19606
[10] = tested on: Escherichia coli D31 CGSC 5165
[11] = tested on: Pseudomonas aeruginosa ATCC 47085
[12] = tested on: Staphylococcus aureus ATCC 35556
[13] = tested on: Acinetobacter baumannii AB1MG
[14] = tested on: Acinetobacter baumannii AB7MG
[15] = tested on: Burkholderia cepacia SMC 71
[16] = tested on: Citrobacter freundii W99FI00007
[17] = tested on: Elizabethkingia meningoseptica CCUG 4310
[18] = tested on: Enterobacter cloacae W03AN0041
Escherichia coli = tested on: Escherichia coli
[19] = tested on: Klebsiella aerogenes W03BG0067
[20] = tested on: Klebsiella oxytoca W99FI00049
Klebsiella pneumoniae = tested on: Klebsiella pneumoniae
[21] = tested on: Morganella morganii W03VA1342
[22] = tested on: Proteus mirabilis W03VA1144
[23] = tested on: Proteus mirabilis W99FI0089
[24] = tested on: Providencia stuartii W03FI0001
[25] = tested on: Pseudomonas aeruginosa 885149
[26] = tested on: Pseudomonas aeruginosa 891
[27] = tested on: Pseudomonas aeruginosa VA463/98
[28] = tested on: Serratia marcescens W99FI0111
[29] = tested on: Staphylococcus aureus ATCC 29213
[30] = tested on: Staphylococcus aureus MIU-68A
[31] = tested on: Stenotrophomonas maltophilia PT4/99
[32] = tested on: Bacillus subtilis CICC 24434
Escherichia coli E44813 = tested on: Escherichia coli E44813
[33] = tested on: Listeria monocytogenes CICC 21533
[34] = tested on: Pasteurella multocida C48-3
[35] = tested on: Salmonella enterica subsp. enterica serovar Choleraesuis C78-1
[36] = tested on: Salmonella typhimurium SL1344
[37] = tested on: Shigella flexneri CICC 21534
[38] = tested on: Staphylococcus epidermidis LY8
Escherichia coli TOP 10 = tested on: Escherichia coli TOP 10
Candida krusei ATCC 6258 = tested on: Candida krusei ATCC 6258
[39] = tested on: Enterococcus faecalis ATCC 29212
[40] = tested on: Escherichia coli ATCC 12795
[41] = tested on: Klebsiella pneumoniae ATCC 10031
[42] = tested on: Mannheimia haemolytica 82-25
[43] = tested on: Pseudomonas aeruginosa ATCC 27312
[44] = tested on: Serratia marcescens ATCC 14756

SMILES: CC(C)C[C@H](NC(=O)[C@@H](NC(=O)CNC(=O)[C@H](C)NC(=O)[C@H](CC(C)C)NC(=O)[C@H](CS)NC(=O)[C@H](CCCN=C(N)N)NC(=O)[C@H](C)NC(=O)[C@H](CC(C)C)NC(=O)CN)[C@@H](C)O)C(=O)O [GLARCLAGTL]
- MIC [1]: 8.21 µM (≈ 8 µg/mL)
- MIC [2]: 8.21 µM (≈ 8 µg/mL)
- MIC [3]: 8.21 µM (≈ 8 µg/mL)
- MIC [4]: 16.4 µM (≈ 16 µg/mL)
- MIC [5]: 16.4 µM (≈ 16 µg/mL)
- MIC [6]: 65.7 µM (≈ 64 µg/mL)
- MIC [7]: 16.4 µM (≈ 16 µg/mL)

SMILES: CC[C@H](C)[C@H](NC(=O)[C@H](CC(=O)O)NC(=O)[C@H](Cc1ccccc1)NC(=O)[C@H](CC(C)C)NC(=O)CN)C(=O)N[C@H](C(=O)N[C@@H](CCCCN)C(=O)N[C@@H](CCCCN)C(=O)N[C@@H](CC(C)C)C(=O)N[C@@H](CC(C)C)C(=O)N[C@@H](CCCCN)C(=O)N[C@@H](CC(C)C)C(=O)N[C@@H](CC(C)C)C(=O)N[C@@H](CCCCN)C(N)=O)C(C)C [GLFDIVKKLLKLLK]
- MIC [8]: ≥ 100 µM

SMILES: CC[C@H](C)[C@H](NC(=O)[C@H](CCCCN)NC(=O)CNC(=O)[C@H](CC(C)C)NC(=O)[C@@H](NC(=O)[C@H](C)NC(=O)[C@H](CCCCN)NC(=O)CNC(=O)[C@H](C)NC(=O)CNC(=O)[C@H](CCCCN)NC(=O)[C@H](CCSC)NC(=O)[C@H](CCCCN)NC(=O)[C@@H](NC(=O)[C@H](Cc1c[nH]c2ccccc12)NC(=O)[C@H](CC(C)C)NC(=O)[C@H](CCC(N)=O)NC(=O)[C@H](CCCCN)NC(=O)[C@H](CC(C)C)NC(=O)[C@@H](N)CC(C)C)[C@@H](C)O)C(C)C)C(=O)N[C@@H](CCCCN)C(=O)NCC(=O)N[C@@H](CC(C)C)C(=O)N[C@@H](CC(C)C)C(=O)O [LLKQLWTKMKGAGKAVLGKIKGLL]
- MIC [9]: 0.94 µM (≈ 2.44 µg/mL)
- MIC [10]: 0.94 µM (≈ 2.44 µg/mL)
- MIC [11]: 7.5 µM (≈ 19.5 µg/mL)
- MIC [12]: 1.88 µM (≈ 4.88 µg/mL)

SMILES: CC[C@H](C)[C@H](NC(=O)[C@H](CCCCN)NC(=O)[C@H](CCCCN)NC(=O)[C@@H](N)CCC(N)=O)C(=O)N[C@@H](CCCN=C(N)N)C(=O)N[C@H](C(=O)N[C@@H](CCCN=C(N)N)C(=O)N[C@@H](CC(C)C)C(=O)N[C@@H](CO)C(=O)N[C@@H](C)C(=O)O)C(C)C [QKKIRVRLSA]
- MIC [13]: 13.4 µM (≈ 16 µg/mL)
- MIC [14]: 26.7 µM (≈ 32 µg/mL)
- MIC [15]: ≥ 53.4 µM
- MIC [16]: 13.4 µM (≈ 16 µg/mL)
- MIC [17]: ≥ 107 µM
- MIC [18]: 3.34 µM (≈ 4 µg/mL)
- MIC [2]: 3.34 µM (≈ 4 µg/mL)
- MIC (Escherichia coli): 6.68 µM (≈ 8 µg/mL)
- MIC [19]: 6.68 µM (≈ 8 µg/mL)
- MIC [20]: ≥ 53.4 µM
- MIC (Klebsiella pneumoniae): 6.68 µM (≈ 8 µg/mL)
- MIC [21]: ≥ 107 µM
- MIC [22]: ≥ 53.4 µM
- MIC [23]: ≥ 107 µM
- MIC [24]: ≥ 107 µM
- MIC [25]: 6.68 µM (≈ 8 µg/mL)
- MIC [26]: 6.68 µM (≈ 8 µg/mL)
- MIC [3]: 3.34 µM (≈ 4 µg/mL)
- MIC [27]: 3.34 µM (≈ 4 µg/mL)
- MIC [28]: ≥ 107 µM
- MIC [6]: > 107 µM
- MIC [29]: > 53.4 µM
- MIC [30]: ≥ 107 µM
- MIC [31]: ≥ 107 µM

SMILES: CC[C@H](C)[C@H](NC(=O)[C@@H](NC(=O)[C@H](Cc1ccccc1)NC(=O)[C@H](CCCCN)NC(=O)[C@@H]1CCCN1C(=O)[C@H](CCCCN)NC(=O)[C@H](CCC(N)=O)NC(=O)[C@@H]1CCCN1C(=O)[C@H](CCCN=C(N)N)NC(=O)[C@H](CCCN=C(N)N)NC(=O)[C@@H](NC(=O)[C@H](CCCN=C(N)N)NC(=O)[C@H](Cc1c[nH]c2ccccc12)NC(=O)[C@H](CC(C)C)NC(=O)[C@H](CCCN=C(N)N)NC(=O)[C@H](CC(=O)O)NC(=O)[C@@H](NC(=O)[C@@H](NC(=O)[C@@H](N)CCCN=C(N)N)[C@@H](C)CC)[C@@H](C)CC)C(C)C)C(C)C)C(=O)N[C@H](C(=O)N[C@@H](Cc1c[nH]c2ccccc12)C(=O)N[C@H](C(=O)N[C@@H](CCCN=C(N)N)C(=O)O)C(C)C)C(C)C [RIIDRLWRVRRPQKPKFVIVWVR]
- MIC [32]: 0.259 µM (≈ 0.78 µg/mL)
- MIC (Escherichia coli E44813): 2.07 µM (≈ 6.25 µg/mL)
- MIC [33]: 20.7 µM (≈ 62.5 µg/mL)
- MIC [34]: 0.259 µM (≈ 0.78 µg/mL)
- MIC [35]: 0.129 µM (≈ 0.39 µg/mL)
- MIC [36]: 0.259 µM (≈ 0.78 µg/mL)
- MIC [37]: 24.9 µM (≈ 75 µg/mL)
- MIC [6]: 0.0041 µM (≈ 0.0124 µg/mL)
- MIC [38]: 4.14 µM (≈ 12.5 µg/mL)

SMILES: CC(C)C[C@H](NC(=O)[C@@H](N)[C@@H](C)O)C(=O)N1CCC[C@H]1C(=O)N[C@@H](CCC(=O)O)C(=O)N[C@@H](Cc1c[nH]c2ccccc12)C(=O)N[C@@H](CC(=O)O)C(=O)N[C@@H](CC(=O)O)C(=O)N[C@@H](CCCN=C(N)N)C(=O)N[C@@H](CCCN=C(N)N)C(=O)N[C@H](C(=O)N[C@H](C(=O)N[C@@H](CC(N)=O)C(=O)N[C@@H](CO)C(N)=O)C(C)C)C(C)C [TLPEWDDRRVVNS]
- MIC (Escherichia coli TOP 10): ≥ 63 µM

SMILES: CC(C)[C@H](N)C(=O)N[C@@H](CC(=O)O)C(=O)N[C@@H](CC(=O)O)C(=O)N[C@@H](CC(=O)O)C(=O)N[C@@H](CC(=O)O)C(=O)N[C@@H](CCCCN)C(=O)O [VDDDDK]
- MIC (Candida krusei ATCC 6258): ≥ 2770 µM
- MIC [39]: 2670 µM (≈ 1880 µg/mL)
- MIC [40]: ≥ 900 µM
- MIC [41]: ≥ 850 µM
- MIC [42]: ≥ 160 µM
- MIC [43]: ≥ 1500 µM
- MIC [44]: ≥ 3000 µM
- MIC [29]: 1080 µM (≈ 762 µg/mL)
